Columns and labels:
JAZ2 promoter = assay: pJAZ2:GUS promoter expression (GUS staining); format: cell-based, Arabidopsis; settings: 50 μM JA, 2 h, young seedlings
Text: (§1) Transgenic Arabidopsis lines expressing pJAZ:GUS promoter fusions were obtained by cloning the corresponding pJAZ PCR products (pJAZ1 fw cacc[…] [SEQ ID NO: 29]; pJAZ1 rev […] [SEQ ID NO: 30]; pJAZ2 fw cacc[…] [SEQ ID NO: 31]; pJAZ2 rev […] [SEQ ID NO: 32]; pJAZ3 fw cacc[…] [SEQ ID NO: 33]; pJAZ3 rev […] [SEQ ID NO: 34]) into the pENTR™/D-TOPO® system (Invitrogen) and then transferring them to pGWB3. Agrobacterium strain GV3101, containing these constructs, was used to transform Col-0 plants by floral dipping (Clough, S. J. and Bent, A. F. Plant J. 1998, 16(6): 735-743). Several transgenic lines were checked for Kanamycin and Hygromycin resistance and lines carrying one insertion were driven to homozygosis and used for further analysis. pJAZ2:GUS in coi1-30 background was generated by crossing the corresponding parental single homozygous lines. Arabidopsis lines expressing pMYC3:GUS and pMYC4:GUS promoter fusions, were previously reported (Fernandez-Calvo, P. et al. Plant Cell. 2011, 23(2): 701-715). The lines JAZ2-3 (RIKEN_ 13-5433-1) and JAZ2ΔJas (GABI_169B06) were obtained from the Nottingham Arabidopsis Stock Centre. The line JAZ1ΔJas (SEQ ID NO: 61) was obtained from an Arabidopsis activation tagging population (Weigel, D. et al. Plant Physiol. 2000, 122(4): 1003-1013). […]

JAZ1 promoter = assay: pJAZ1:GUS promoter expression (GUS staining); format: cell-based, Arabidopsis; settings: 50 μM JA, 2 h
Text: as §1

stomata guard cells = assay: Stomatal aperture measurements (MAMP-induced closure, COR-induced reopening); format: cell-based, Arabidopsis; settings: leaves incubated with MAMPs and 2 μM COR simultaneously
Protocol: Whole leaves from 4- to 6-week-old Arabidopsis plants were collected and exposed to white light for 1.30 hours while floating in a solution containing 50 mM KCl, 10 μm CaCl2, and 10 mm MES-KOH pH=6.1 (opening stomata buffer) with moderate shaking (50 rpm) to induce homogenous stomatal aperture among all Arabidopsis lines to compare. To do the MAMP-induced closure assays, the previous solution was removed and whole leaves were immersed in opening stomata buffer containing Pto DC3000 MAMP extracts at OD600=1,5 (7,5×10^8 cfu/ml), 2 μM of coronatine or a mock solution. Samples were further incubated under the same previous conditions for 4-5 hours. Then, leaves were rapidly peeled and abaxial epidermal peels were placed on cover slips and observed with a microscope (Leica DMR). Stomatal aperture (width/length) was measured using ImageJ software. Error bars represent standard error of the mean (SEM) (n=20). Stomatal experiments were repeated at least three independent times and representative results are shown.
We next analyzed the ability of JAZ2-3 to close stomata upon microbial perception and reopen it in the presence of COR. […] Typically, Pto DC3000 MAMPs were used at optical density at 600 nm OD600=1,5 (7,5×10^8 cfu/ml) for incubation with leaves (Stomatal Aperture Measurements) or Arabidopsis seedlings (Quantitative RT-PCR). […]

JAZ2 protein = target: T1, JAZ2 protein (Arabidopsis thaliana, UniProt O04197+Q9S7M2); assay: JAZ2 protein stability (35S JAZ2-GUS staining); format: cell-based; settings: JAZ2-GUS transgenic seedlings, 3 h
T1 construct: expressed in transfected cells
T1 sequence (Q9S7M2 1-249): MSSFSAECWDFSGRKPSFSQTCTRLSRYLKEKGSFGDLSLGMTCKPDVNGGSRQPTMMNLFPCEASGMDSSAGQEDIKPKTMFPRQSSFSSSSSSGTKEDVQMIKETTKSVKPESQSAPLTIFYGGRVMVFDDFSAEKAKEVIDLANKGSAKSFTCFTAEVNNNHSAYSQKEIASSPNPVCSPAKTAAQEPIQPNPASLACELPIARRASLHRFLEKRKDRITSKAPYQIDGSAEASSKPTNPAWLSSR
T1 sequence (O04197 1-592): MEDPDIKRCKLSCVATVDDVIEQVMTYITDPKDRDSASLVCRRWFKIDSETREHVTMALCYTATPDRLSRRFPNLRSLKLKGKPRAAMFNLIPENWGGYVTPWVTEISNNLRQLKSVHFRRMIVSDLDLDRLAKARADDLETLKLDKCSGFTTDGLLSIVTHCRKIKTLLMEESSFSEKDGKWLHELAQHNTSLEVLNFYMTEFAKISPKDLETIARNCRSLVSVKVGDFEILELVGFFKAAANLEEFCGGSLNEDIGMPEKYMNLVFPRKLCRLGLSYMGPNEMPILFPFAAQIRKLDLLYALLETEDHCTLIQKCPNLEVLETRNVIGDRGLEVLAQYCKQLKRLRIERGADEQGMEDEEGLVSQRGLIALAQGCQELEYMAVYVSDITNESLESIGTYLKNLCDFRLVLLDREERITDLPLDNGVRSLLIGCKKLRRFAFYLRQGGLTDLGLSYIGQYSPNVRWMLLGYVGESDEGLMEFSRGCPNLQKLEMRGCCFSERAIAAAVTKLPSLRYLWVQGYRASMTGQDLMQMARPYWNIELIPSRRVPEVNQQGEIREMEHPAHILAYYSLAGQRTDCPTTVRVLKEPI
T1 sequence (Q39255 1-160 partner): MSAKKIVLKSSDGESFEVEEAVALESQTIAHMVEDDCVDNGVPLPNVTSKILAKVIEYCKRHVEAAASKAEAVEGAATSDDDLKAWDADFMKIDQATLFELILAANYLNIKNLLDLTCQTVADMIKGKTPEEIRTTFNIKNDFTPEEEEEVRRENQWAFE
Protocol: For JAZ promoter:GUS expression experiments, five to seven days-old seedlings were treated with mock solution or 50 μM JA for 2 h and GUS stained as previously described (Fernandez-Calvo, P. et al. Plant Cell. 2011; 23(2): 701-715). For JAZ2 protein stability experiments, seven to nine days-old seedlings were treated with mock solution or 50 nM COR for 3 h. Then, samples were placed in staining solution containing 50 mM phosphate buffer, pH 7, 0.1% (v/v) Triton X-100 (Sigma-Aldrich), 2 mM 5-bromo-4-chloro-3-indolyl b-D glucuronic acid (X-Gluc, Glycosynth), 1 mM potassium-ferrocyanide (Sigma-Aldrich), and 1 mM potassium-ferricyanide (Sigma-Aldrich) and incubated at 37° C. overnight. After staining, the tissue was soaked several times in 75% ethanol and kept in 5% glycerol until being photographed with a Leica DMR UV/VIS microscope.

CC/C=C\C[C@H]1C(=O)CC[C@@H]1CC(=O)O [JA, jasmonic acid]
JAZ2 expression (pJAZ2:GUS) after JA treatment (JAZ2 promoter): induced it in roots and mesophyll cells of young seedlings | JAZ1 expression (pJAZ1:GUS) after JA treatment (JAZ1 promoter): strongly induced JAZ1 in roots and mesophyll cells

CC[C@H]1C=C(C(=O)N[C@@]2(C(=O)O)C[C@@H]2CC)[C@H]2CCC(=O)[C@H]2C1 [COR, coronatine]
COR-induced stomata reopening (stomata guard cells): triggered COR-induced stomata reopening in JAZ2-3 and WT plants, but not in coi1-30 | COR concentration inducing rapid degradation of JAZ2 protein at guard cells (JAZ2 protein): ≤ 50 nM
